Experimental data: patent publication US20230115675A1, “METHODS OF TREATING CANCER” (The Broad Institute, Inc., priority 2020, published 2023)
Read-outs that look alike come from different tables or passages of the source.

Key:
NCHIH2030 cells = experiment: Viability in media containing glucose or galactose; format: cell-based; settings: glucose replaced with galactose in the media
Protocol: FIG. 32G-L show exemplary viability results of NCHIH2030 cells grown in the presence of 10 mM glucose or 10 mM galactose in the media after 72 hours (Pyrithione-Cu is Pyrithione-CuCl2 (1:1); TMT-Cu is TMT-CuCl2 (1:1); 8HQ-Cu is 8-HQ-CuCl2 (1:1); Disulfiram-Cu is Disulfiram-CuCl2 (1:1); NSC319726-Cu is NSC319726-Cu Cl2 1(1:1); AntiA is Antimycin A).
(§1) To establish if this effect is mediated by the electron transfer chain (ETC), 143B rho0 cells (lacking mitochondrial DNA) and their parental controls (143B) were tested.

MON cells = experiment: Viability after treatment with drugs in the presence of metal salts; format: cell-based; settings: for cell death promoted by Zinc: 10 μM ZnCl2
Protocol: Metal binding compounds can induce a toxic phenotype either by sequestration (chelation) of metals from essential factors or by shuttling (e.g., an ionophore) of metals to cellular compartments where they are toxic.
The viability of MON cells was measured following treatment with increasing doses of indicated drugs in the presence of 10 μM FeCl2, FeCl3, ZnCl2, NiCl, CuCl2, or CoCl2 (FIG. 13). The viability of NCIH2030 cells was measured following treatment with increasing doses of indicated drugs in the presence of 10 μM FeCl2, FeCl3, ZnCl2, NiCl, CuCl2, or CoCl2 (FIG. 14).

143B rho0 cells = experiment: Viability of 143B and 143B Rho0 cells; format: cell-based; settings: 72 hours
Protocol: as §1

A549 cell lines = experiment: Whole genome CRISPR/Cas9 deletion screens with copper bound ionophores; format: cell-based; settings: positive selection
Protocol: These genes included FDX1, protein lipoylation enzymes (LIAS, LIPT1, and DLD) and subunits of the lipoylated protein complex pyruvate dehydrogenase (DLAT, PDHA1, and PDHB).
FIG. 54A-E show exemplary plots of the log fold change versus the calculated p-value of FDX1 (A), DLAT (B), DLD (C) and LIAS (D) genes from the two whole genome CRISPR/Cas9 deletion screens in A549 cell lines for two concentrations of elesclomol-Cu (40 nM and 100 nM). (E) The correlation scores of FDX1 mRNA expression with the viability of 724 cancer cell lines as previously determined (4) for the different concentrations of elesclomol.

tumors = experiment: Lipoic acid staining as biomarker of sensitivity
Text: Lipoic acid was stained in FDX1 KO cells by an immunohistochemistry assay.

FDX1 = target: T1, FDX1 (Homo sapiens, UniProt P10109); settings: cited from earlier work; for binding to FDX1: previously shown
T1 sequence (P10109 61-184): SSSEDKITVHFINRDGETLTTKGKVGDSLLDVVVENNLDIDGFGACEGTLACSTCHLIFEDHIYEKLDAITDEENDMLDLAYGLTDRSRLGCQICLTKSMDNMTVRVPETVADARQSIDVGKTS

[1] = tested on: lipoyl-DLAT and lipoyl-DLST; experiment: Western blot of lipoylated proteins; format: cell-based
Protocol: CRISPR KO FDX1 cell lines or CRISPR KO LIAS cell lines were created and were assessed for levels of lipoylated proteins lipoyl-DLAT and lipoyl-DLST by Western Blot (FIG. 8).
Lipoic acid is a strong binder of copper, making it plausible that elesclomol bound copper could directly affect the lipoylated proteins. Indeed, the addition of elesclomol at concentrations as low as 10 nM reduced the levels of lipoylated proteins without dramatically affecting the protein levels (FIG. 36 and FIG. 37).
The levels of lipoylation decrease following treatment of A549 cells with 1 μM elesclomol (+CuCl2) (FIG. 26).

[2] = Tsvetkov et al., Nat Chem Bio, 2019; cited from earlier work
[3] = cited from earlier work
[4] = tested on: multiple cell line models; experiment: Elesclomol-induced cell death depending on copper availability (supplementation, TTM chelation, serum); format: cell-based
Text: The sensitivity of cells to elesclomol is dependent on copper availability. […] Copper is not supplemented in the media (RPMI) and therefore the availability of copper is restricted to the abundance of copper in serum, which can strongly vary. […] Thus, the efficacy of elesclomol is dependent on extracellular and intracellular copper availability.

three cell lines = experiment: Pre-treatment with compounds that block known cell death pathways; format: cell-based
Text: To further establish which cell death pathways might be mediating the elesclomol induced copper-dependent cell death, a chemical approach was undertaken using compounds that block critical niches of known cell death pathways. […] As controls, ferroptosis-inducing GPX4 inhibitor (ML162) and apoptosis-inducing proteasome inhibitor (bortezomib) were used. […] Ferroptosis or apoptosis-altering compounds (as shown in the ML162 and bortezomib controls) had no effect on elesclomol-copper-induced cell death. […] The slight changes observed are most likely due to the copper chelating properties of the molecule. […] Given the absolute dependency and regulation of this cell death pathway by copper, this process is referred to as ‘cuproptosis’ for simplicity.

A549 cells = experiment: Viability after FDX1 or LIAS gene deletion; format: cell-based
Text: It has been previously shown that ferredoxin 1 (FDX1) is an important mediator of elesclomol-induced toxicity. […] To better understand the potential downstream mediators of cuproptosis, a CRISPR/Cas9 deletion strategy was used. […] In all conditions, FDX1 gene was the highest scoring hit, emphasizing the importance of this gene in elesclomol mediated toxicity (FIG. 33). […] The lipoic acid pathway mediates the lysine lipoylation of specific enzymes (DLAT, DLST, DBT, GCSH) that is crucial for their function (FIG. 34). […] This hypothesis was particularly appealing as lipoylation is required for mitochondrial respiration and lipoic acid has shown to have a high affinity binding to copper.

Biomarker-positive cells = experiment: Cell culture washout (short exposure mimicking PK); format: cell-based; settings: for sensitivity of biomarker-positive cells: high FDX1 expression vs biomarker negative
Protocol: […] Panels D and Panel E show the relative changes in metabolites as measured in ABC1(D) and A549 (E) 24 hours after a 2 hour pulse treatment with 100 nM elesclomol.
Biomarker-positive cells are sensitive to elesclomol-Cu(II) treatment corresponding to measured concentrations and kinetics measured in mice pharmokinetic (PK) studies.
Study simulates short exposure time that mimics the pharmokinetic (PK) properties of elesclomol-Cu(II).
Data supports Cmax driven activity profile. Cells will be used to establish a SubQ xenograft model where different copper ionophores could be analyzed for their efficacy.

ABC1 cells = experiment: Elesclomol sensitivity of single cell clones with AAVS1 or FDX1 deletion; format: cell-based; settings: in the presence of 1 uM CuCl2
HCM18 cells = experiment: Viability of HCM18 control and Bak/Bax deleted cells; format: cell-based; settings: HCM18 Bak/Bax knock out vs control
Text: FIG. 32A-F show exemplary viability results of HCM18 control cells or […] deletion cells after treatment with indicate concentrations of different compounds (Pyrithione-Cu is Pyrithione-CuCl2 (1:1); TMT-Cu is TMT-CuCl2 (1:1); 8HQ-Cu is 8-HQ-CuCl2 (1:1); Disulfiram-Cu is Disulfiram-CuCl2 (1:1); NSC319726-Cu is NSC319726-Cu Cl2 1(1:1); AntiA is Antimycin A).
Both iron and copper can generate highly reactive hydroxyl radical (.OH) from O2.— and H2O2 in the cell via the Fenton reaction. In the case of iron, this can result in lipid radicals that induce ferroptosis, a non-apoptotic cell death. […] As such, to determine if elesclomol induced cell death is apoptotic, a genetic approach was undertaken using the HCM18 cells that have the crucial apoptosis effectors (Bak and Bax) knocked out (FIG. 29). […] However, the ability of elesclomol-copper to induce cell death was unaffected (FIG. 11). Other copper binding molecules were tested in these cell lines and in all cases the efficacy of these compounds was unaffected by the genetic perturbation of the apoptosis pathway (FIG. 32).

lipid peroxidation = experiment: Lipid peroxidation; format: cell-based
OVISE cells = experiment: Viability after LIAS or FDX1 gene deletion; format: cell-based
[5] = Tsvetkov et al., Nat Chem Bio, 2019

## Oc1cccc2cccnc12 [8HQ, Oxyquinoline]
NCHIH2030 cells
  effect of shift to mitochondrial metabolism on sensitivity: rather mild
MON cells; 10 μM FeCl2, FeCl3, to a lower extent than copper
  cell death promoted by Iron: also able to promote the cell death
143B rho0 cells
  sensitivity of 143B rho0 cells compared with parental 143B: equally sensitive

## CCN(CC)C(=S)[S-].CCN(CC)C(=S)[S-].[Cu+2] [Cu-DDC]
A549 cell lines
  effect of deletion of FDX1, protein lipoylation and PDH genes: promotes resistance

## C/C(=N\NC(=S)N1CCC1)c1ccccn1 [NSC-319726]
MON cells; to a lower extent than copper
  cell death promoted by Zinc: also able to promote the cell death
143B rho0 cells
  sensitivity of 143B rho0 cells compared with parental 143B: equally sensitive

## [O-][n+]1ccccc1[S-].[O-][n+]1ccccc1[S-].[Zn+2] [Pyrithione, Pyrithione Zinc]
NCHIH2030 cells
  effect of shift to mitochondrial metabolism on sensitivity: rather mild
MON cells; to a lower extent than copper
  cell death promoted by Zinc: also able to promote the cell death
143B rho0 cells
  sensitivity of 143B rho0 cells compared with parental 143B: equally sensitive

## CN(C)C(=S)SC(=S)N(C)C [TMT, tetra methyl thiuram monosulfide]
NCHIH2030 cells
  effect of shift to mitochondrial metabolism on sensitivity: rather mild
143B rho0 cells
  sensitivity of 143B rho0 cells compared with parental 143B: equally sensitive

## CCN(CC)C(=S)SSC(=S)N(CC)CC [disulfiram, tetraethylthiuram disulfide]
MON cells; to a lower extent than copper
  cell death promoted by Zinc: also able to promote the cell death
tumors
  sensitivity of tumors with increased levels of lipoic acid: sensitive
143B rho0 cells
  sensitivity of 143B rho0 cells compared with parental 143B: slightly more sensitive

## CN(NC(=O)CC(=O)NN(C)C(=S)c1ccccc1)C(=S)c1ccccc1 [elesclomol, Elesclomol]
NCHIH2030 cells
  effect of shift to mitochondrial metabolism on sensitivity: increasingly more sensitive
MON cells; among compounds of the cluster
  selectivity of metal binding: most selective binding to copper
tumors
  sensitivity of tumors with increased levels of lipoic acid: sensitive
FDX1; [5]
  FDX1 activity in vitro: inhibits FDX1 activity
FDX1
  binding to FDX1: direct target
FDX1; listed as Elesclomol
  binding to FDX1: directly binds
[1]; 1 μM over 6 hours
  lipoyl-DLAT and lipoyl-DLST protein levels: decreased over time
[1]; A549 cells, 1 μM (+CuCl2)
  levels of lipoylation: decrease
[1]; without dramatically affecting the protein levels
  concentration that reduced the levels of lipoylated proteins: ≤ 10 nM
143B rho0 cells
  sensitivity of 143B rho0 cells compared with parental 143B: slightly more sensitive
[2]
  copper dependence of killing: copper dependent
[3]; in combination with paclitaxel
  Phase II trial outcome: may provide a cancer progression-free survival benefit
[3]; in vivo
  Phase III trial outcome: failed
[4]; completely reversed by addition of copper
  sensitivity in media lacking serum: increased resistance
[4]; copper 1 μM in media or 1:1 ratio with compound
  elesclomol-induced cell death upon addition of copper: strongly augment
[4]; multiple cell line models
  elesclomol induced cell death upon chelation of copper with tetrathiomolybdate (TTM): completely blocks
[4]; subset of ovarian cancer cell lines
  variability of efficacy with copper supplementation: strongly reduces the variability
Three cell lines; three cell lines tested, TTM
  block of cell death by copper chelation: only copper chelation by TTM, was able to block
A549 cells
  effect of deletion of LIAS: sufficient to promote resistance
Biomarker-positive cells
  sensitivity of biomarker-positive cells: more sensitive
ABC1 cells
  effect of decrease of FDX1 beyond certain threshold: increases the cell resistance

## CN([N-]C(=O)CC(=O)[N-]N(C)C(=[SH+])c1ccccc1)C(=[SH+])c1ccccc1.[Cu] [elesclomol-Cu(II)]
HCM18 cells
  efficacy in Bak/Bax deleted cells: unaffected
A549 cell lines
  effect of deletion of FDX1, protein lipoylation and PDH genes: promotes resistance
Three cell lines; pre-treatment of cells
  block of cell death by pan-caspase inhibitors, Ferrostatin-1, Necrostatin-1, antioxidants: did not block
Lipid peroxidation
  change in lipid peroxidation: did not induce a profound change

## CN1C(c2ccccc2)=[SH][Cu+2]23[SH]=C(c4ccccc4)N(C)[N]2C(=O)CC(=O)[N]13 [elesclomol-Cu(II)]
FDX1; [5]
  substrate of FDX1: neo-substrate of FDX1
OVISE cells
  effect of deletion of LIAS or FDX1 in OVISE cells: resistance
A549 cells; A549
  effect of deletion of FDX1 in A549 cells: relative resistance
A549 cells; multiple cell models
  effect of deletion of FDX1: conferred resistance
Biomarker-positive cells; 2 hour exposure at 200 nM followed by washout
  biomarker selective cell killing after short exposure: sufficient to effect biomarker selective cell killing
Biomarker-positive cells
  sensitivity of biomarker-positive cells: sensitive

## CC(=O)O[C@H]1C(=O)[C@@]2(C)[C@H]([C@H](OC(=O)c3ccccc3)[C@]3(O)C[C@H](OC(=O)[C@H](O)[C@@H](NC(=O)c4ccccc4)c4ccccc4)C(C)=C1C3(C)C)[C@]1(OC(C)=O)CO[C@@H]1C[C@@H]2O [paclitaxel]
HCM18 cells
  efficacy in Bak/Bax deleted cells: strongly inhibited
